Here are results for one molecule from US11584766B2, “Nicotinamide phosphoribosyltransferase inhibitors and methods for use of the same” (THE TRUSTEES OF INDIANA UNIVERSITY, priority 2018, dated 2023).

For series [1] the following is noted: in vivo; cited from earlier work.
The test system of series [2] is vascular remodeling caused by PAH. The settings on record: rat models; cited from earlier work.
Series [3] has as its system human pulmonary artery endothelial cells (hPAECs). Briefly: CyQUANT Direct Assay (proliferation), hPAEC. The format is cell-based. The settings on record: Homo sapiens, Endothelial cell, 24 h, hPAEC, 24 h treatment. On the procedure:
The effect of the compounds disclosed herein on the viability, proliferation, and apoptosis of human pulmonary artery endothelial cells (“hPAECs,”) and human pulmonary artery smooth muscle cells (“hPASMCs”) was determined using the PrestoBlue Assay (viability), CYQuant Direct or BrdU Assay (proliferation) or Tunel Assay (apoptosis), as described below.
HPAECs (1×10^4 cells/well) or HPASMCs (2.5×10^3 cells/well) were seeded in 96-well plates for 24 h in full-serum tissue culture medium. The full medium was removed prior to treatment with a NAMPT inhibitor prepared in medium containing 0.1% serum. NAMPT inhibitors were solubilized in 100% DMSO, unless otherwise indicated, prior to preparation of the dose response curve in 100% DMSO. The treatment dose response curve was diluted in 0.1% serum tissue culture medium and administered to cells for 24 h. DMSO diluted in the same medium was used as the vehicle control. Cell viability was measured according to the manufacturer's protocol by adding the PrestoBlue Cell Viability Reagent (ThermoFisher Scientific, #A13261) to cells for 20 min at 37° C. in a tissue culture incubator, followed by reading fluorescence at ex560/em590. Cell proliferation was measured, either in the same wells or in separate experiments, by adding the CyQuant Direct Confirmation Reagent (ThermoFisher Scientific, #C35011) for 1 h at 37° C. in a tissue culture incubator, followed by reading fluorescence at ex485/em538. Proliferation was also measured, in separate experiments, using the BrdU Cell Proliferation Assay (Calbiochem, #QIA58). After treatment with a NAMPT inhibitor for 24 h, BrdU was added to the cells in the presence of the inhibitor, for an additional 24 h and BrdU incorporation was detected according to the manufacturer's protocol. Apoptosis was analyzed by seeding cells (1×10^5 cells/well) in 6-well plates for 24 h in full-serum medium, followed by treatment with a NAMPT inhibitor for 24 h in full-serum medium. Tunel staining and detection was performed using the Tunel Assay Kit (Abcam, #ab66110) according to the manufacturer's protocol.

What is called IC50 is the concentration that inhibits the measured activity by half. Read a low IC50 as greater potency in that assay.

For the molecule `O=C(/C=C/c1cccnc1)NCCCCC1CCN(C(=O)c2ccccc2)CC1` [FK866], the renal toxicity entry in series [1] is on record as “exhibit renal toxicity”. The “vascular remodeling caused by PAH” value in series [2] was “prevent and reverse”. This molecule had an IC50 in series [3] of 60.3 µM.
